Results reported in US20260083864A1, “CONTRAST AGENTS FOR USE IN DIAGNOSTIC COMPUTED TOMOGRAPHY IMAGING” (Bayer Aktiengesellschaft, priority 2022, published 2026).

Experiments:
[1] = test system: plasma proteins; test: Plasma protein binding, equilibrium dialysis, rat; type: in vitro ADME
Description: The binding of Example 1 and 15 to plasma proteins of different species (human, dog, monkey, rabbit, mouse and rat) was investigated in vitro by using equilibrium dialysis in reusable 96-well Micro-Equilibrium Dialysis Devices (ht dialysis) (Banker M J et al. J Pharm Sci. 2003 May; 92 (5): 967-74).

[2] = Biliary elimination in bile duct cannulated (BDC) rats; settings: 0.1 mmol Gd/kg bw i.v.
[3] = biological target: T1, OATP1B3 (Homo sapiens, UniProt Q9NPD5); test: Uptake into stable transfected OATP1B3 HEK 293 cells; type: cell-based; settings: for Uptake into OATP1B3-HEK 293 cells: 40 min incubation, relative to RC1 (Gd-EOB-DTPA); for Inhibition Rifampicine: uptake into OATP1B3-HEK 293 cells
T1 sequence (Q9NPD5 1-702): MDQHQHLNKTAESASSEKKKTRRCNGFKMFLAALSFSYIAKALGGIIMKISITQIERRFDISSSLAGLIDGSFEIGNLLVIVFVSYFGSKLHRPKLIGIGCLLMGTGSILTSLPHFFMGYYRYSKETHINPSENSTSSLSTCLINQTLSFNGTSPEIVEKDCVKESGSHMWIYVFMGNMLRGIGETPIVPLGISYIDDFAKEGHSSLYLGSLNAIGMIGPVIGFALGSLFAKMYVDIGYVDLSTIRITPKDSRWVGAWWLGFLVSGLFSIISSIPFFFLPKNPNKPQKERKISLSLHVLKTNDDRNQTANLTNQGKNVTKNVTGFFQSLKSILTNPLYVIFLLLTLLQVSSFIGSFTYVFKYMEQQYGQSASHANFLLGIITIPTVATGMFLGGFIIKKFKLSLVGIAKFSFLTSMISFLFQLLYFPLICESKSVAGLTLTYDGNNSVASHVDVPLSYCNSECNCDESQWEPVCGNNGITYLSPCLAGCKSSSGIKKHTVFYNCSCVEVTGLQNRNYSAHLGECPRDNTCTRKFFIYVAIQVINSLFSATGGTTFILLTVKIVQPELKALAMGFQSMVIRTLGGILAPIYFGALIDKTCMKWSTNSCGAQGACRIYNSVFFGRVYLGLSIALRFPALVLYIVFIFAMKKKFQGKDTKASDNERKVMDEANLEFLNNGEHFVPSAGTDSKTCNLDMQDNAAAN
How it was run: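 HEK 293 cells stably transfected with human OATP1B3 were incubated for 40 min with test items at 100 μM final in transport buffer, in triplicate, then washed with cold PBS. Gadoxetate (Gd-EOB-DTPA) served as the reference standard on the same plate.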

[4] = Partition coefficient (log P butanol/buffer); type: physicochemical; settings: 1-butanol / 50 mM Tris-HCl, pH 7.4, room temperature
[5] = reference compounds, 1.5 T, 37° C., bovine plasma instead of human plasma, from Rohrer et al.; cited from earlier work
[6] = reference compounds, 1.5 T, 37° C., from Rohrer et al.; cited from earlier work

| Compound | Fraction unbound fu [1] | Biliary excretion, % of injected dose, Mean ± SD (cumulative) ([2]; bile fraction 0-0.5 h) | Biliary excretion, % of injected dose, Mean ± SD (cumulative) ([2]; bile fraction 0.5-1 h) | Biliary excretion, % of injected dose, Mean ± SD (cumulative) ([2]; bile fraction 1-2 h) | Biliary excretion, % of injected dose, Mean ± SD (cumulative) ([2]; bile fraction 2-3 h) | Biliary excretion, % of injected dose, Mean ± SD (cumulative) ([2]; bile fraction 3-4 h) | Uptake into OATP1B3-HEK 293 cells [3] | Inhibition Rifampicine [3] | Log P (partition coefficient butanol/buffer) [4] | r1 plasma (r1 human plasma) [5] | r1 water [6] |
| --- | --- | --- | --- | --- | --- | --- | --- | --- | --- | --- | --- |
| CCOc1ccc(CCOCC(C(=O)O)N2CCN(CC(=O)[O-])CCN(CC(=O)[O-])CCN(CC(=O)[O-])CC2)cc1.[Gd+3] (stereo not drawn) [Example 1, gadolinium 2,2′,2″-(10-{1-carboxy-2-[2-(4-ethoxyphenyl)ethoxy]ethyl}-1,4,7,10-tetraazacyclododecane-1,4,7-triyl)triacetate] | 92% | 55.5 ± 1.7% | 62.6 ± 0.7% | 65.1 ± 1.3% | 65.6 ± 1.6% | 65.8 ± 1.7% | 24 % of RC1 | 97 % inhibition | −0.98 | – | – |
| CCOCCOCCOc1ccc(CC(C(=O)O)N2CCN(CC(=O)[O-])CCN(CC(=O)[O-])CCN(CC(=O)[O-])CC2)cc1.[Gd+3] (stereo not drawn) [Example 2, gadolinium 2,2′,2″-{10-[1-carboxy-2-{4-[2-(2-ethoxyethoxy)ethoxy]phenyl}ethyl]-1,4,7,10-tetraazacyclododecane-1,4,7-triyl}triacetate] | >95% | – | – | – | – | – | 56 % of RC1 | 80 % inhibition | −1.63 | – | – |
| CCOCCOCCOc1ccc(CCC[C@@H](C(=O)O)N2CCN([C@@H](CO)C(=O)[O-])CCN([C@@H](CO)C(=O)[O-])CCN([C@@H](CO)C(=O)[O-])CC2)cc1.[Gd+3] [Example 15, gadolinium (2S,2′S,2″S)-2,2′,2″-{10-[(1S)-1-carboxy-4-{4-[2-(2-ethoxyethoxy)ethoxy]phenyl}butyl]-1,4,7,10-tetraazacyclododecane-1,4,7-triyl}tris(3-hydroxypropanoate)] | 71% | – | – | – | – | – | – | 98 % inhibition | −1.00 | – | – |
| CCOc1ccc(CC(CN(CCN(CC(=O)[O-])CC(=O)[O-])CC(=O)[O-])N(CC(=O)[O-])CC(=O)[O-])cc1.[Gd+3].[Na+].[Na+] (stereo not drawn) [RC1, gadoxetate disodium, reference compound] | – | – | – | – | – | – | 100 % of RC1 | 99 % inhibition | −2.12 | 5.2 L/mmol/s | 3.3 L/mmol/s |
